Read-outs that look alike come from different tables or passages of the source.
Legend:
Format in all cases: cell-based
[1] = tested on: NCI-H358-AMGR drug-resistant cell line; test: NCI-H358-AMGR drug-resistant cell proliferation inhibitory activity test; details: NCI-H358-AMGR drug-resistant cells, 3 days incubation, CellTiter-Glo
How it was run: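 Luminescent CellTiter-Glo read-out after 3-day, 37° C compound exposure (8 points, 5-fold series) of AMG510-resistant NCI-H358 cells plated at 4×10^3 per well.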

[2] = tested on: NCI-H358 cells (KRAS G12C mutant); test: NCI-H358 cell proliferation inhibition (CellTiter-Glo); details: read-out: NCI-H358 (IC50)
[3] = tested on: MIA PaCa-2-AMGR drug-resistant cell line; test: MIA PaCa-2-AMGR drug-resistant cell proliferation inhibitory activity test; details: MIA PaCa-2-AMGR drug-resistant cells, 3 days incubation, CellTiter-Glo
How it was run: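 Viability was read by CellTiter-Glo luminescence after 3 days of compound exposure (8 points, 5-fold serial dilution), with IC50 derived relative to untreated control. Cells: AMG510-resistant MIA PaCa-2 (selected stepwise to 1 μM AMG510), 4×10^3/well, DMEM + 10% FBS + 2.5% horse serum, 37° C.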

[4] = tested on: MIA PaCa-2 cells (KRAS G12C mutant); test: MIA PaCa-2 cell anti-proliferation (CellTiter-Glo); details: MIA Paca-2 cells, 3 days, Table 7, read-out: MIA PaCa-2 (IC50)
How it was run: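 Viable-cell luminescence (CellTiter-Glo, ≥30 min at 25 °C) measured after a 3-day, 37 °C exposure to compounds at 9 points, 4-fold spaced, in DMEM containing 10% FBS plus 2.5% horse serum. IC50 derived versus no-inhibitor wells.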

[5] = Homo sapiens, NCI-H358, 72 h, H358 cells (G12C mutation), 3 days, Table 6

SMILES	IC50 ([1]; 72 h)	IC50 [2, 5]	IC50 ([3]; 72 h)	IC50 ([4]; Homo sapiens, 72 h)	IC50 [1]	IC50 [2]	IC50 [3]	IC50 [4]
COc1ncc(-c2ccc3ncnc(N4CCN(C(=O)/C=C/C(C)=O)CC4)c3c2)cc1NS(=O)(=O)c1ccc(F)cc1F [Example 6, (E)-2,4-difluoro-N-(2-methoxy-5-(4-(4-(4-oxopent-2-enoyl)piperazin-1-yl)quinazoline-6-yl)pyridin-3-yl)benzenesulfonamide]	15.6 nM	18 nM	49.2 nM	17.1 nM				
C=CC(=O)N1CCN(c2ncnc3ccc(-c4cnc(OC)c(NS(=O)(=O)c5ccc(F)cc5F)c4)cc23)[C@@H](C)C1 [Example 7, (S)—N-(5-(4-(4-acryloyl-2-methylpiperazin-1-yl)quinazolin-6-yl)-2-methoxypyridin-3-yl)-2,4-difluorobenzenesulfonamide]	41.7 nM	44 nM	222 nM	32.3 nM				
COc1ncc(-c2ccc3ncnc(N4CCN(C(=O)/C=C/n5ccnn5)CC4)c3c2)cc1NS(=O)(=O)c1ccc(F)cc1F [Example 10, (E)-N-(5-(4-(4-(3-(1H-1,2,3-triazol-1-yl)acryloyl)piperazin-1-yl)quinazolin-6-yl)-2-methoxypyridin-3-yl)-2,4-difluorobenzenesulfonamide]	86.6 nM	24.6 nM	226 nM	83.2 nM				
COc1ncc(-c2ccc3ncnc(N4C[C@@H](C)N(C(=O)/C=C/C(C)=O)C[C@@H]4C)c3c2)cc1NS(=O)(=O)c1ccc(F)cc1F [Example 15, N-(5-(4-((2S,5R)-2,5-dimethyl-4-((E)-4-oxopent-2-enoyl)piperazin-1-yl)quinazolin-6-yl)-2-methoxypyridin-3-yl)-2,4-difluorobenzenesulfonamide]	62.1 nM	19.9 nM	243 nM	71.1 nM				
CCCC(=O)/C=C/C(=O)N1CCN(c2ncnc3ccc(-c4cnc(OC)c(NS(=O)(=O)c5ccc(F)cc5F)c4)cc23)CC1 [Example 17, (E)-2,4-difluoro-N-(2-methoxy-5-(4-(4-(4-oxohept-2-enoyl)piperazin-1-yl)quinazolin-6-yl)pyridin-3-yl)benzenesulfonamide]	53.3 nM	34.6 nM	106 nM	87.9 nM				
COc1ncc(-c2ccc3ncnc(N4CCC5(CC4)CN(C(=O)/C=C/C(C)=O)C5)c3c2)cc1NS(=O)(=O)c1ccc(F)cc1F [Example 20, (E)-2,4-difluoro-N-(2-methoxy-5-(4-(2-(4-oxopent-2-enoyl)-2,7-diazaspiro[3.5]nonan-7-yl)quinazolin-6-yl)pyridin-3-yl)benzenesulfonamide]	48.7 nM	26.2 nM	111 nM	64.1 nM				
COc1ncc(-c2ccc3ncnc(N4CCN(C(=O)/C=C/C(C)=O)CC4)c3c2)cc1NS(=O)(=O)c1c(F)cccc1F [Example 22, (E)-2,6-difluoro-N-(2-methoxy-5-(4-(4-(4-oxopent-2-enoyl)piperazin-1-yl)quinazolin-6-yl)pyridin-3-yl)benzenesulfonamide]	47.9 nM	23.7 nM	76.7 nM	92.1 nM				
COc1ncc(-c2ccc3ncnc(N4CCC5(CN(C(=O)/C=C/C(C)=O)C5)C4)c3c2)cc1NS(=O)(=O)c1c(F)cccc1F [Example 42]					132 nM	79 nM	185 nM	284 nM
COc1ncc(-c2ccc3ncnc(N4CCN(C(=O)/C=C/C(C)=O)C[C@@H]4C)c3c2)cc1NS(=O)(=O)c1c(F)cccc1F [Example 46, (S,E)-2,6-difluoro-N-(2-methoxy-5-(4-(2-methyl-4-(4-oxopent-2-enoyl)piperazin-1-yl)quinazolin-6-yl)pyridin-3-yl) benzenesulfonamide]	27.8 nM	29.9 nM	77.4 nM	91.9 nM				
COc1ncc(-c2ccc3ncnc(N4CCC5(CC4)CN(C(=O)/C=C/C(C)=O)C5)c3c2)cc1NS(=O)(=O)c1c(F)cccc1F [Example 49, (E)-2,6-difluoro-N-(2-methoxy-5-(4-(2-(4-oxopent-2-enoyl)-2,7-diazaspiro[3.5]nonan-7-yl)quinazolin-6-yl)pyridin-3-yl) benzenesulfonamide]	45.5 nM	32 nM	62.4 nM	110 nM				
COc1ncc(-c2ccc3ncnc(N4C[C@@H](C)N(C(=O)/C=C/C(C)=O)C[C@@H]4C)c3c2)cc1NS(=O)(=O)c1c(F)cccc1F [Example 51, N-(5-(4-((2S,5R)-2,5-dimethyl-4-((E)-4-oxopent-2-enoyl)piperazin-1-yl)quinazolin-6-yl)-2-methoxypyridin-3-yl)-2,6-difluorobenzene-sulfonamide]	61 nM	48.7 nM	181 nM	50.7 nM				
COc1ncc(-c2ccc3ncnc(N4CCN(C5CN(C(=O)/C=C/C(C)=O)C5)CC4)c3c2)cc1NS(=O)(=O)c1ccc(F)cc1F [Example 56, (E)-2,4-difluoro-N-(2-methoxy-5-(4-(4-(1-(4-oxopent-2-enoyl)azetidin-3-yl)piperazin-1-yl)quinazolin-6-yl)pyridin-3-yl)benzenesulfon-amide]	116 nM	69.7 nM	116 nM					
COc1ncc(-c2ccc3ncnc(N4CCC5(CC=CC5=O)CC4)c3c2)cc1NS(=O)(=O)c1ccc(F)cc1F [Example 70, 2,4-difluoro-N-(2-methoxy-5-(4-(1-oxo-8-azaspiro[4,5]dec-2-en-8-yl)quinazolin-6-yl)pyridin-3-yl)benzenesulfonamide]	74.5 nM	58.4 nM	139 nM	40.1 nM				
COc1ncc(-c2ccc3ncnc(N4CCN(C(=O)/C=C/C(C)=O)CC4)c3c2)cc1NS(=O)(=O)c1cccc(F)c1F [Example 90, (E)-2,3-difluoro-N-(2-methoxy-5-(4-(4-(4-oxopent-2-enoyl)piperazin-1-yl)quinazolin-6-yl)pyridin-3-yl)benzenesulfonamide]	56.2 nM	54.5 nM	106 nM	51.9 nM				
COc1ncc(-c2ccc3ncnc(N4CCN(C(=O)/C=C/C(C)=O)CC4)c3c2)cc1NS(=O)(=O)c1ccccc1F [Example 91, (E)-2-fluoro-N-(2-methoxy-5-(4-(4-(4-oxopent-2-enoyl)piperazin-1-yl)quinazolin-6-yl)pyridin-3-yl)benzenesulfonamide]	83.9 nM	17.8 nM	79.8 nM	30.7 nM				
COc1ncc(-c2ccc3ncnc(N4CCN(C(=O)/C=C/C(C)=O)CC4)c3c2)cc1NS(=O)(=O)c1ccc(F)cc1 [Example 92, (E)-4-fluoro-N-(2-methoxy-5-(4-(4-(4-oxopent-2-enoyl)piperazin-1-yl)quinazolin-6-yl)pyridin-3-yl)benzenesulfonamide]	111 nM	16.7 nM	56.9 nM	31 nM				
COc1ncc(-c2ccc3ncnc(N4CCN(C(=O)/C=C/C(C)=O)CC4)c3c2)cc1NS(=O)(=O)c1ccccc1C [Example 93, (E)-N-(2-methoxy-5-(4-(4-(4-oxopent-2-enoyl)piperazin-1-yl)quinazolin-6-yl)pyridin-3-yl)-2-methylbenzenesulfonamide]	69.3 nM	18 nM	114 nM	39.4 nM				
COc1ncc(-c2ccc3ncnc(N4CCN(C(=O)/C=C/C(C)=O)CC4)c3c2)cc1NS(=O)(=O)c1cc(F)ccc1F [Example 94, (E)-2,5-difluoro-N-(2-methoxy-5-(4-(4-(4-oxopent-2-enoyl)piperazin-1-yl)quinazolin-6-yl)pyridin-3-yl)benzenesulfonamide]	65.2 nM	62.5 nM	126 nM	65.9 nM				
COc1ncc(-c2ccc3ncnc(N4CCN(C(=O)/C=C/C(C)=O)CC4)c3c2)cc1NS(=O)(=O)c1c(F)cc(F)cc1F [Example 99, (E)-2,4,6-trifluoro-N-(2-methoxy-5-(4-(4-(4-oxopent-2-enoyl)piperazin-1-yl)quinazolin-6-yl)pyridin-3-yl)benzenesulfonamide]	65.2 nM	9.6 nM	72.9 nM	16.7 nM				
COc1ncc(-c2ccc3ncnc(N4CCC5(CC4)CN(C(=O)/C=C/C(C)=O)C5)c3c2)cc1NS(=O)(=O)c1c(F)cc(F)cc1F [Example 101, (E)-2,4,6-trifluoro-N-(2-methoxy-5-(4-(2-(4-oxopent-2-enoyl)-2,7-diazaspiro[3.5]nonan-7-yl)quinazolin-6-yl)pyridin-3-yl)benzenesulfonamide]	28.3 nM	11.6 nM	35.9 nM	11.6 nM				
COc1ncc(-c2ccc3ncnc(N4CCN(C(=O)/C=C/C(C)=O)CC4)c3c2)cc1NS(=O)(=O)c1c(F)cncc1F [Example 102, (E)-3,5-difluoro-N-(2-methoxy-5-(4-(4-(4-oxopent-2-enoyl)piperazin-1-yl)quinazolin-6-yl)pyridin-3-yl)pyridine-4-sulfonamide]	516 nM	73 nM	908 nM	142 nM				
